Reference: paper PMC9592910, “Tissue distribution and integrated pharmacokinetic properties of major effective constituents of oral Gegen-Qinlian decoction in mice” (Frontiers in Pharmacology, 2022)
Marks after values point to notes of the source that are not given here.

Columns and labels:
[1] = Pharmacokinetics of GQD constituents in the portal vein of mice after oral GQD; format: in vivo, Kunming mice; details: both, Kunming, mouse, portal vein plasma, portal vein plasma, mice; for Tmax: po, oral GQD extract […], read-out: Tmax; for Cmax / MRT / AUC(0-t) / half-life: oral GQD extract 6.1 g/kg; for AUC(0-t): read-out: AUC0–24 h; for half-life: read-out: T1/2 (converted)
Description: (§1) Fifty-four Kunming mice were randomly divided into nine groups according to body weight and gender (3 male and three female in each group). Each group was orally administered with water solution (0.2 ml/10 g body weight) of the GQD extract powder at the dosage of 6.1 g/kg body weight. The dosage of GQD extract powder equals to 18 g/kg herbal pieces of GQD, which is equivalent to its clinical dosage. At each designed time point (0.08, 0.25, 0.5, 1, 2, 4, 8, 12, and 24 h) after oral administration, six mice were anesthetized with ether, and blood was collected from the portal vein (about 0.2 ml, aspirated in a 1 ml heparinized syringe) and then the systemic circulation (about 0.2 ml, collected in heparinized tubes after removal of the eyeball) of the mice to prepare plasma samples, and the livers and the colons were removed to prepare respective homogenate. After pretreatment, the concentrations of 19 major constituents of GQD in each sample were measured by the validated LC-MS/MS method (see “2.3”). Then the C-T curves of the constituents in the plasma and the tissue homogenates were respectively drawn and their pharmacokinetic parameters were respectively calculated.
(§2) It should be noted that the pharmacokinetic parameters of a GQD constituent was calculated based on its average concentration in six mice at each time point. The results were expressed as mean ± SD.

[2] = Pharmacokinetics of GQD constituents in the systemic circulation of mice after oral GQD; format: in vivo, Kunming mice; details: systemic circulation plasma, systemic circulation plasma, mice; for half-life / Tmax / Cmax / MRT / AUC(0-t): both, Kunming, mouse; for half-life / Tmax: po; for half-life: read-out: T1/2 (converted); for Tmax: read-out: Tmax; for Cmax / MRT / AUC(0-t): oral GQD 6.1 g/kg; for AUC(0-t): read-out: AUC0–24 h
Description: as §1, §2

[3] = Pharmacokinetics/tissue distribution of GQD constituents in the livers of mice after oral GQD; format: in vivo, Kunming mice; details: liver, mice; for half-life / Cmax / MRT / Tmax: both, Kunming, mouse, liver (homogenate); for half-life: po, read-out: T1/2 (converted); for half-life / T1/2: oral GQD extract […]; for Cmax / MRT / Tmax: oral GQD extract 6.1 g/kg; for Tmax: read-out: Tmax
Description: (§3) The liver and the colon homogenates were prepared with 10 times (V: W) the volume of ascorbic acid solution (200 μg/ml). Then the homogenates were pretreated as plasma to obtain the tissue samples for LC-MS/MS analysis. Fifty-four Kunming mice were randomly divided into nine groups according to body weight and gender (3 male and three female in each group). […] Then the C-T curves of the constituents in the plasma and the tissue homogenates were respectively drawn and their pharmacokinetic parameters were respectively calculated. […] It should be noted that the pharmacokinetic parameters of a GQD constituent was calculated based on its average concentration in six mice at each time point. The results were expressed as mean ± SD.

[4] = Pharmacokinetics/tissue distribution of GQD constituents in the colons of mice after oral GQD; format: in vivo, Kunming mice; details: colon, mice; for half-life / Cmax / MRT / Tmax: both, Kunming, mouse, colon (homogenate); for half-life: po, read-out: T1/2 (converted); for half-life / T1/2: oral GQD extract […]; for Cmax / MRT / Tmax: oral GQD extract 6.1 g/kg; for Tmax: read-out: Tmax
Description: as §3

[5] = set-up: method as in Zhai et al., 2020; details: at 10 μM; ref Zhai et al., 2020; cited from earlier work
[6] = system: dextran sodium sulfate-induced ulcerative colitis model mice; set-up: method as in Dong et al., 2022; details: oral 40 mg/kg for 7 days, DSS-induced ulcerative colitis model mice; ref Dong et al., 2022; cited from earlier work
[7] = system: dextran sodium sulfate-induced colitis; set-up: method as in Jeon et al., 2020; details: oral 10 or 50 mg/kg; ref Jeon et al., 2020; cited from earlier work
[8] = system: rats with irritable bowel syndrome; set-up: method as in Wang et al., 2021; details: oral 6–24 mg/kg, ref Wang et al., 2021; cited from earlier work

Row | Compound | Tmax [1] | Cmax [1] | MRT [1] | AUC(0-t) [1] | half-life [1] | half-life ([2]; oral GQD […]) | Tmax ([2]; oral GQD […]) | Cmax [2] | MRT [2] | AUC(0-t) [2] | half-life [3] | Cmax [3] | MRT [3] | Tmax [3] | T1/2 [3] | half-life [4] | Cmax [4] | MRT [4] | Tmax [4] | T1/2 [4] | also measured
1 | COc1ccc2cc3[n+](cc2c1OC)CCc1cc2c(cc1-3)OCO2 [Berberine, berberine] | 4 h | 191 ng/mL | 5.5 h | 1420 ng·h/mL | 8 h | ~6 h | 1 h | 85.4 ng/mL | 5.4 h | 419 ng·h/mL | ~10 h | 427 ng/g | 8.3 h | 4 h | 10.1# h | 3.5 h | 6230 ng/g | 6 h | 4 h | – | T1/2 ([2]; oral GQD […]): 5.3 h; anti-inflammatory effect [5]: significant anti-inflammatory effect; effect on intestinal mucosal barrier function and inflammatory reaction [6]: significantly improved intestinal mucosal barrier function
2 | O=c1c(-c2ccc(O)cc2)coc2c([C@@H]3O[C@H](CO)[C@@H](O)[C@H](O)[C@H]3O)c(O)ccc12 [Puerarin, puerarin] | 0.25 to 0.5 h | 1990 ng/mL | 3.2 h | 6710 ng·h/mL | 2.9 h | 3.4 h | 0.25 to 0.5 h | 1580 ng/mL | 3.3 h | 5230 ng·h/mL | 3 to 4 h | 2870 ng/g | 3.8 h | 0.5 h | 4.0 h | 1 to 4 h | 61600 ng/g | 5.9 h | 4 h | 1.3 h | effect on dextran sodium sulfate-induced colitis [7]: alleviated dextran sodium sulfate-induced colitis; effect on irritable bowel syndrome symptoms [8]: improved symptoms of rats with irritable bowel syndrome
3 | COc1cc2c(cc1O)CC[n+]1cc3c(OC)c(OC)ccc3cc1-2 [Jatrorrhizine, jatrorrhizine] | 4 h | 16.6 ng/mL | 4.8 h | 116 ng·h/mL | 6.3 h | 4.3 h | 0.08 h | 10.1 ng/mL | 3.9 h | 26.3 ng·h/mL | 2.4 h | 136 ng/g | 6.6 h | 4 h | – | 5 h | 2100 ng/g | 6.2 h | 4 h | – | –
4 | O=c1cc(-c2ccccc2)oc2cc(O)c(O)c(O)c12 [Baicalein, baicalein] | 2 h | 381 ng/mL | 3.8 h | 1760 ng·h/mL | 1.3 h | 6.3 h | 4 h | 26.7 ng/mL | 6.8 h | 229 ng·h/mL | 2 to 3 h | 9020 ng/g | 4.3 h | 4 h | 2.3 h | 2 to 3 h | 1920 ng/g | 5.8 h | 4 h | 2.6 h | –
5 | COc1ccc2c(c1O)-c1c(O)c(OC)cc3c1[C@H](C2)[N+](C)(C)CC3 [Magnoflorine, magnoflorine] | 0.25 h | 38.3 ng/mL | 2.6 h | 161 ng·h/mL | 1.2 h | 1.9 h | 0.5 h | 22.4 ng/mL | 2.6 h | 94.9 ng·h/mL | 5.3 h | 53.4 ng/g | 5.3 h | 0.25 h | – | 2.1 h | 2150 ng/g | 5 h | 4 h | – | –
